{"source": "patent US20230322735A1", "about": "“AZETIDINYL TRYPTAMINES AND METHODS OF TREATING PSYCHIATRIC DISORDERS” (priority 2020, published 2023)", "key": {"5-HT2B receptor": {"biological_target": "T1, 5-HT2B receptor (Homo sapiens, UniProt P41595)", "T1 construct": "host or cells: HEK293", "T1 sequence (P41595 whole entry)": "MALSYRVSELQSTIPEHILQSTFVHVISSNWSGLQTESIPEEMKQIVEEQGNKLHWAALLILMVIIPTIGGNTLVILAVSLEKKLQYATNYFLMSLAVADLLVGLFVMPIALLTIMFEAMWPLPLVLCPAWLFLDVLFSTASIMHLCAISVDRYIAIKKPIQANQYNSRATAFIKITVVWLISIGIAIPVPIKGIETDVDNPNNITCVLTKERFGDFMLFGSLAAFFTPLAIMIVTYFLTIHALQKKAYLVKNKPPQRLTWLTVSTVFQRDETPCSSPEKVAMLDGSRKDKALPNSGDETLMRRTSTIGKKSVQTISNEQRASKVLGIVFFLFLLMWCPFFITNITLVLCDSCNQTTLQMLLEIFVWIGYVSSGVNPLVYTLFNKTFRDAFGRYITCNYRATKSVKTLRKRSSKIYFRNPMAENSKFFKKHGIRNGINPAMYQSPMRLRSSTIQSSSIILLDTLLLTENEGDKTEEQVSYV", "assay": "FLIPR Ca2+ flux agonist assay at 5-HT2B (HEK293)", "type": "cell-based", "method": "A solution of 250 mM probenecid in 1 mL FLIPR assay buffer was prepared fresh. This was combined with a fluorescent dye (Fluo-4 Direct™) to make a final assay concentration of 2.5 mM. […] The fluorescent dye was then added to the assay plate along with assay buffer to a final volume of 40 μL. The cell plate was incubated for 50 min at 37° C. and 5% CO2 and placed into the FLIPR Tetra along with the compound plate. 10 μL of references and compounds were then transferred from the compound plate into the cell plate and the fluorescent signal was read."}, "[1]": {"assay": "Stability in mouse brain homogenate"}, "[2]": {"assay": "Chemical stability of the product on storage and analysis", "type": "physicochemical", "method": "Note: The product 2 is unstable and should be stored frozen, protected from light, and under inert gas. If stored properly, stability has been confirmed by qNMR for at least 1 month.\nA mixture of 3-(2-(azetidin-1-yl)ethyl)-1H-indol-4-ol (2, 50 mg, 231.18 μmol, 1 eq) and pyridine (23.77 mg, 300.54 μmol, 24.26 μL, 1.3 eq) in DCM (1 mL) was cooled to 0° C. Then acetic anhydride (25.96 mg, 254.30 μmol, 23.82 μL, 1.1 eq) was added dropwise at 0° C. and the resulting mixture was stirred at 25° C. for 1 h. At this time, the solvent was removed and the residue was purified by prep-HPLC (column=Waters Xbridge BEH C18 (100*30 mm, 10 μm); mobile phase=water(NH4HCO3)-ACN, B %=5%-40%; 10 min run time) to provide 3-(2-(azetidin-1-yl)ethyl)-1H-indol-4-yl acetate (4) as a white solid (20 mg, 33% yield). ^1H NMR (400 MHz, DMSO-d6) δ 11.01 (br s, 1H), 7.22 (d, J=8.0 Hz, 1H), 7.11 (d, J=1.6 Hz, 1H), 7.02 (t, J=8.0 Hz, 1H), 6.64 (d, J=7.6 Hz, 1H), 3.09 (t, J=6.8 Hz, 4H), 2.57-2.54 (m, 4H), 2.32 (s, 3H), 1.96-1.90 (m, 2H); LCMS (RT=0.983 min, MS calc.: 258.14, [M+H]+=259.1)."}}, "data": [{"molecule": "Oc1cccc2[nH]cc(CCN3CCC3)c12", "note": "[Compound 2, 3-(2-(azetidin-1-yl)ethyl)-1H-indol-4-ol]", "values": [{"measurement": "EC50", "setting": "5-HT2B receptor", "result": "> 10", "unit": "µM"}, {"measurement": "5-HT2B % Act @ Max Dose", "setting": "5-HT2B receptor; Ca2+ flux, agonist mode, HEK293", "result": 3.83, "unit": "%"}, {"measurement": "stability in mouse brain homogenate (in words)", "setting": "[1]", "result": "good stability"}, {"measurement": "half-life at 1 μM", "setting": "[1]; male, CD-1, mouse, mouse brain homogenate", "result": "> 4.82", "unit": "h"}, {"measurement": "% Compound Remaining (after 120 min)", "setting": "[1]; mouse brain homogenate (male CD-1), 1 μM, 37° C., 120 min", "result": 74.2, "unit": "%"}, {"measurement": "stability of the product (in words)", "setting": "[2]; storage", "result": "unstable"}, {"measurement": "time for which stability was confirmed by qNMR", "setting": "[2]; stored frozen, protected from light, under inert gas", "result": "at least 1 month"}]}]}
